In article PMC9769502 (Microbiology Spectrum, 2022):
Where two headings read alike, the source gives them in different places. No end group written: not given here.

Legend:
[1] = system: Leishmania donovani axenic amastigotes; details: 50 μM miltefosine control; cited from earlier work
Procedure: (§1) Axenic amastigotes were differentiated as described previously ([69]); briefly, transgenic L. donovani promastigotes expressing mCherry were differentiated by pH and temperature shifts. Amastigotes were seeded into 96-well plates at 5 × 10^6 cells/mL and incubated for 48 h in the presence of decreasing drug concentrations, starting at 20 μM, along with the appropriate solvent controls. Fluorescence was monitored (587-nm excitation/610-nm emission) over 48 h using a FlexStation 3 benchtop multimode reader (Molecular Devices). At 50 μM miltefosine, 99% parasite inhibition is observed. Thus, chan ...

[2] = system: Leishmania donovani intracellular amastigotes; details: 50 μM miltefosine control; cited from earlier work
Procedure: Transgenic L. donovani promastigotes constitutively expressing mCherry and THP-1 macrophages were cultured as described above. Metacyclic promastigotes were isolated using a Ficoll-400 density gradient as previously described ([70]). Differentiated macrophages were exposed to parasites for 4 h at a multiplicity of infection (MOI) of 10 parasites:1 macrophage. After 4 h, the macrophages were washed thoroughly with 1× phosphate-buffered saline (PBS) (pH 7.4) and incubated overnight at 37°C with 5% CO2. Macrophages were transferred to 96-well plates at 5 × 10^6 cells/mL and exposed to antimicrobi ...

THP-1 macrophages = experiment: Cytotoxicity against THP-1 macrophages (CellTiter-Blue); assay type: cell-based, human
Procedure: THP-1 (human acute monocytic leukemia-derived) host macrophages were cultured in RPMI 1640 supplemented with 10% FCS and a penicillin-streptomycin antibiotic solution (10,000 U/mL penicillin, 10,000 μg/mL streptomycin) at 37°C with 5% CO2. THP-1 cells were incubated with 0.25 μM phorbol 12-myristate […] (PMA) for 48 h to differentiate into mature macrophages. Differentiated macrophages were seeded into 96-well plates at 5 × 10^6 cells/mL and incubated for 48 h in the presence of 20 μM antimicrobial peptides along with the appropriate solvent controls. Cell viability assays were conducted using CellTiter-Blue (Promega), based on resazurin reduction. After the 48-h incubation period, CellTiter-Blue reagent was added to cells for 4 h at 37°C, and fluorescence was measured (555-nm excitation/580-nm emission) using a FlexStation 3 benchtop multimode reader (Molecular Devices). Each assay was performed in triplicate. The CC50 values were calculated by nonlinear regression analysis using GraphPad Prism 9.0 for Windows.

[3] = system: Leishmania donovani axenic amastigotes
Procedure: We utilized a previously developed high-throughput screening assay using transgenic axenic amastigotes expressing a red fluorescent protein, mCherry. Changes in mCherry fluorescence were normalized to 50 μM miltefosine in order to quantify parasite inhibition ([52]). In total, 5 scaffold 25-mer peptides and 475 synthetic 25-mer peptide variants were screened (Fig. 1). […] The assay was repeated, and the average percent parasite killing was determined.
Axenic amastigotes were differentiated as described previously ([69]).
as §1, with “[…] Thus, changes in mCherry fluorescence were normalized to the” for “At”, “miltefosine control in order to quantify” for “miltefosine, 99%”, “inhibition. Each assay was performed in triplicate. The IC50 values were calculated by nonlinear regression analysis using GraphPad Prism 9.0 for Windows.” for “inhibition is observed. Thus, chan ...”

axenic amastigotes = details: previous data used to set the 20 μM screening concentration; read-out: IC50 of enterocin AS-48 (previous data); cited from earlier work
Procedure: We utilized a previously developed high-throughput screening assay using transgenic axenic amastigotes expressing a red fluorescent protein, mCherry. Changes in mCherry fluorescence were normalized to 50 μM miltefosine in order to quantify parasite inhibition ([52]). In total, 5 scaffold 25-mer peptides and 475 synthetic 25-mer peptide variants were screened (Fig. 1). […] The assa ... || In this work, we determined the efficacy and cytotoxicity of 480 synthetic, minimal AS-48 bacteriocin homolog peptide variants against L. donovani using phenotypic in vitro fluorometric assays. […] This study illustrates the successful use of rational design using the minimal domain of naturally occurring bacteriocin scaffolds to increase leishmanicidal activity.

[4] = system: intracellular amastigotes; details: previously shown; cited from earlier work
From the text: As Leishmania spp. are obligate intracellular parasites, intracellular amastigote IC50 value determination is necessary to understand the clinical relevance of the 10 antileishmanial peptide drug candidates.

[5] = system: Leishmania pifanoi axenic amastigotes; details: full-length enterocin AS-48; read-out: IC50 against Leishmania pifanoi axenic amastigotes; cited from earlier work
From the text: Enterocin AS-48, a class I bacteriocin, has been well characterized and is currently being investigated for use as an antimicrobial drug against a large variety of infectious disease agents ([45]). Enterocin AS-48 is a ribosomally produced, circularized bacteriocin encoded by Enterococcus faecalis subsp. liquefaciens strain S-48, which undergoes head-to-tail macrocyclization as a posttranslational modification ([46]). Efforts to engineer synthetic enterocin AS-48 have been made in order to improve mass production and bioactivity. Previously, segments of the bacteriocin have undergone α-ketoaci ...

[6] = read-out: Axenic amastigotes Mean IC50 ± SD, L. donovani mCherry axenic amastigotes, 48 h, fluorescence normalized to 50 μM miltefosine, highest concentration 20 μM, mean of three replicates
[7] = read-out: Axenic amastigotes Mean IC50 ± SD

Compound	THP-1 macrophage CC50 (THP-1 macrophages)	IC50 [3, 6]	also measured
CCCCCCCCCCCCCCCCOP(=O)([O-])OCC[N+](C)(C)C [miltefosine]			Parasite inhibition (axenic amastigotes) [1]: 99%; Intracellular parasite inhibition [2]: 99%
AGRQWLTLYLKEELRKFGKKARIAW [Syn-xiamencin-53]	< 20 µM	14.8 µM	
AGRQWLTLYLKEELRKRGKIAFKAW [Syn-xiamencin-54]	< 20 µM	7.79 µM	
AGRQWLTLYLKEELRKRGKKAFIAW [Syn-xiamencin-49]	< 20 µM		IC50 [3, 7]: 9.22 µM
AGSERIAKELKKYIKKGKKWIRAAW [Syn-enterocin-64]	< 20 µM	0.42 µM	
AGSERIAKELKKYIKKWKKVIRAAW [Syn-enterocin-48]	< 20 µM	1.21 µM	
AGTEKIFNRLKKWINEGKKIAKRAW [Syn-larvacin-32]	< 20 µM	0.23 µM	
AGTEKIFQRLKKTIQEGKKIAKRAW [Syn-larvacin-7]	below 20 μM	5.61 µM	
AGTEKIFQRLKKTIQEWKKIAKRAW [Syn-larvacin-47]	< 20 µM	1.1 µM	
AGTEKIFQRLKKWIQEGKKIAKRAW [Syn-larvacin-31]	< 20 µM		IC50 [3, 7]: 3.8 µM
AGWQRLTLYLKEELRKRGKKAFIAW [Syn-xiamencin-50]	< 20 µM		IC50 [3, 7]: 3.74 µM
AWANRLTKELLEYLRKFGKIARKAW [Syn-xiamencin-32]	< 20 µM	0.89 µM	
AWAQRLTKELLEYLRKFGKIARKAW [Syn-xiamencin-31]	< 20 µM	4.82 µM	
AWKETIFQRLKKKIQEKGKRATIAW [Syn-larvacin 35]	> 20 µM		THP-1 macrophage CC50 (THP-1 macrophages; 48 h): >20 µM; IC50 ([3]; 48 h): 0.63 ± 0.14 µM
AWKETIRKYLKNEIKKKGRKAVIAW [Syn-safencin-22]	< 20 µM	1.18 µM	
AWKETIRQFLKKTIQEKGKRAKIAW [Syn-larvacin-37]	< 20 µM	0.29 µM	

Compound	THP-1 macrophage CC50 (THP-1 macrophages)	IC50 [3, 6]	also measured
AWKETIRQYLKNEIKKKWRKAVIAW [Syn-safencin-89]	< 20 µM	1.05 µM	
AWKETIRQYLKNKIKKKGRKAVIAW [Syn-safencin-19]	< 20 µM	0.38 µM	
AWKETIRQYLKNKIKKKWRKAVIAW [Syn-safencin-91]	< 20 µM	0.6 µM	
AWKKTIRQYLKNEIKKKGRKAVIAW [Syn-safencin-18]	< 20 µM	7.96 µM	
AWKKTIRQYLKNEIKKKWRKAVIAW [Syn-safencin-90]	< 20 µM	2.6 µM	
AWKKTIRQYLKNKIKKKWRKAVIAW [Syn-safencin-92]	< 20 µM	0.9 µM	
AWTEKIFNRLKKTINEGKKIAKRAW [Syn-larvacin-40]	< 20 µM	8.35 µM	
AWTEKIFQRLKKTIQEGKKIAKRAW [Syn-larvacin-39]	< 20 µM	1.43 µM	
WGKETIFQRLKKKIQEKGKRATIAW [Syn-larvacin-11]	below 20 μM	0.66 µM	
WGKETIRKYLKNEIKKKGRKAVIAW [Syn-safencin-14]	below 20 μM	0.67 µM	
WGKETIRQFLKKKIQEKGKIATRAW [Syn-larvacin 14]	> 20 µM		THP-1 macrophage CC50 (THP-1 macrophages; 48 h): >20 µM; IC50 ([3]; 48 h): 3.89 ± 0.1 µM
WGKETIRQKLKNEIKKKGRKAVIAW [Syn-safencin-15]	below 20 μM	1.71 µM	
WGKETIRQYLKNKIKKKGRKAVIAW [Syn-safencin-11]	below 20 μM	12.2 µM	
WGKKTIRQYLKNEIKKKGRKAVIAW [Syn-safencin-10]	below 20 μM	2.97 µM	
WGTEKIRQFLKKKIQEKGKRATIAW [Syn-larvacin-10]	below 20 μM	0.27 µM	
enterocin AS-48			IC50 (axenic amastigotes): ~20 µM; Activity against intracellular amastigotes [4]: limited activity; IC50 [5]: 10.2 ± 1.2 µM
